Reference: paper doi:10.1101/2022.12.30.522309v1 (biorxiv, 2022)
pEC50: −log10 of the molar value.

Molecular target: T1, human FFA2R (Homo sapiens, UniProt O15552)
T1 sequence (O15552 1-330): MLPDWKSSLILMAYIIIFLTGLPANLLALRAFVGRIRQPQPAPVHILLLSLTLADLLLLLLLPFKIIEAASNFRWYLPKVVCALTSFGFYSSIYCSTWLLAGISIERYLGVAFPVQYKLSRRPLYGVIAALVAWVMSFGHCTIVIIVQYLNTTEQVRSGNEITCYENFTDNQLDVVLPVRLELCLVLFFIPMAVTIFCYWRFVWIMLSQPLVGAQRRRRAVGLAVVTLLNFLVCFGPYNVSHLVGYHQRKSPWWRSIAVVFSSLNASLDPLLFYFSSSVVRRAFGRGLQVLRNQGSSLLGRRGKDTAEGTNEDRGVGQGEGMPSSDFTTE
Experiment: inhibition of forskolin-induced cAMP, LANCE Ultra TR-FRET, HEK293
Format: cell-based

pEC50: 2.91
Compound: CC(=O)CC(=O)O [acetoacetate]
